Test system: AICARFT
Experiment: AICARFT in vivo target inhibition (IVTI) assay in mouse plasma (AICAr)
Description: In vivo studies are performed using female athymic nude mice (Harlan) with a bodyweight of 23-28 g at first measurement. Upon receipt and throughout the study, the animals are housed 5 animals per cage in appropriately sized solid-bottom cages with contact bedding. The animal room is maintained on a 12-hour light/dark cycle. Animals are acclimated for 14 days prior to implantation of the NCI-H460 or HCT-116 cells on low folate diet (Teklad 130451) ad libitum and autoclaved tap water is provided ad libitum. The HCT-116 and NCI-H460 cell line are obtained from American Type Culture Collection (ATCC) and is cultured following ATCC instructions. Cells used for implantation are harvested during log phase growth and suspended in serum-free media. The suspended cells are then diluted 1:1 with BD Matrigel Matrix (ref 354234). Cells are injected in the right flank with 5.0E+06 cells (0.2 mL cell/Matrigel suspension). Tumors are monitored beginning day 8 post implant. Animals are redistributed into groups with 5-6 animals per group utilizing proprietary randomization software when average tumor volume reaches 200 mm^3. Groups 1-12 are maintained on a low folate diet (Teklad 130451) and folic acid (Sigma F8798 Lot #SLBH0909V) administration at doses listed in the Table 19 began 28 hours prior to dose initiation and 4 hours prior to each dose. Folic acid is formulated weekly in PBS and dosed via oral gavage at 0.2 mL. Groups 13-16 are placed on standard chow (Teklad 2920X) at randomization. The compound is formulated weekly in 20% HPBCD in Phosphate buffer pH 8 with one molar equivalent NaOH added. The formulated compound is administered at the doses and schedules indicated in Table 19 by oral gavage (0.2 mL). The vehicle is also given QD as the control arm of the study. Tumor volume and body weight are measured 2× a week. Tumor volume is determined by caliper measurements (mm) and using the formula for an ellipsoid sphere: tumor volume (mm^3)=length×width^2/2, where length and width refer to the larger and smaller perpendicular dimensions collected at each measurement. The animal behavior and animal health are monitored daily during dosing period.
The in vivo effects of AICARFT inhibition on the circulating concentration of AICAr is determined by liquid chromatography-mass spectrometry (LC-MS). Standard curves containing AICAr at concentrations of 1 ng/mL-2000 ng/mL are prepared in 40 mM ammonium acetate, pH 4. Plasma samples (75 μL) or standards (75 μL) are combined with 300 μL of an internal standard solution containing 13C5-AICAr (20 ng/mL) and formic acid (1%) in ACN. The samples are vortex mixed for 5 minutes and passed through a Phenomenex Phree 96-well phospholipid removal SPE plate. The eluents are collected in a 96-well plate and dried under heated nitrogen at 50° C. Each sample is reconstituted in 50 μL of 40 mM ammonium acetate, pH 4. The plates are sealed and vortexed for 5 minutes prior to analysis. The LC-MS method utilized a Shimadzu Prominence 20A HPLC system connected to an AB Sciex 5500™ or an AB Sciex 6500™ triple quadrupole mass spectrometer running Analyst® software. Extracted samples are separated using two Thermo Hypercarb™ Javelin guard columns (2.1×20 mm, 5 μm) connected in series with an injection volume of 15 μL and a flow rate of 1 mL/minute. Mobile phase A is a 95:5 mixture of 50 mM ammonium formate, pH 4 and ACN. Mobile phase B is a 70:30 mixture of ACN and MeOH spiked with 0.3% formic acid and 2% concentrated ammonium hydroxide solution (v/v). For mouse plasma samples the following gradient is used: 0 minutes, 0% B; 0.25 minutes, 0% B; 2.00 minutes, 25% B; 2.01 minutes, 95% B; 3.50 minutes, 95% B; 3.51 minutes, 0% B; 4.50 minutes, stop. For dog plasma samples the following gradient is used to remove endogenous interferences: 0 minutes, 0% B; 0.25 minutes, 0% B; 5.99 minutes, 20% B; 6.00 minutes, 95% B; 8.00 minutes, 95% B; 8.01 minutes, 0% B; 10.00 minutes, stop. […]

Compound: O=c1[nH]ccc2cc(F)c(NS(=O)(=O)c3ccc(N4CC[C@@H](O)C4)s3)cc12 [Example 1, N-(6-Fluoro-1-oxo-1,2-dihydroisoquinolin-7-yl)-5-[(3R)-3-hydroxypyrrolidin-1-yl]thiophene-2-sulfonamide]
- Mean Plasma AICAr (HCT-116 xenograft mice, Group 6, low folate diet, folic acid 0.75 mg/kg (QD × 15, orally), 10 mg/kg QD × 14, orally, Day 23): 88 nM
- Mean Plasma AICAr (HCT-116 xenograft mice, Group 7, low folate diet, folic acid 0.75 mg/kg (QD × 15, orally), 30 mg/kg QD × 14, orally, Day 23): 181 nM
- Mean Plasma AICAr (HCT-116 xenograft mice, Group 14, standard chow, no folic acid, 10 mg/kg QD × 14, orally, Day 23): 44 nM
- Mean Plasma AICAr (HCT-116 xenograft mice, Group 15, standard chow, no folic acid, 30 mg/kg QD × 14, orally, Day 23): 154 nM
- Mean Plasma AICAr (NCI-H460 xenograft mice, Group 14, standard chow, no folic acid, 10 mg/kg QD × 13, orally, Day 20): 368 nM
- Mean Plasma AICAr (NCI-H460 xenograft mice, Group 15, standard chow, no folic acid, 30 mg/kg QD × 13, orally, Day 20): 1400 nM

Source: patent US9776992B2, “1-oxo-1,2-dihydroisoquinolin-7-yl-(5-substituted-thiophen-2-yl)-sulfonamide compounds, formulations containing those compounds, and their use as AICARFT inhibitors in the treatment of cancers” (Eli Lilly and Company, priority 2014, dated 2017)
